Where “and” joins values, the source holds several entries; their conditions need not be identical. Identical values can stand only once.
Tested on: mCRPC CWR-R1ca-Luc cells
Test: mCRPC recurrence prevention study after neoadjuvant DTX and ENZ and primary tumor excision
Type: in vivo, athymic male nude mice
Conditions: 60 days
Method: For the recurrence prevention study, nineteen 7–8-week-old athymic male nude mice (Strain Foxn^nu-Foxn^1+) were xenografted with 2 × 10^6 the mCRPC CWR-R1ca-Luc cells at the suprascapular region in 100 µL 1:1 serum-free Dulbecco’s Modified Eagle Medium (DMEM) medium-Matrigel. Mice were fed on an HFD (11.4% total fat, Cat# 7004, Envigo/Teklad, Madison, WI, USA) for 7 days before the tumor cells xenografting. When the tumors reached 100 mm^3, mice were subjected to weekly IV injections of 10 mg/kg docetaxel (DTX) (Combi-Blocks, San Diego, CA, USA) dissolved in Tween 80 (20 mg/mL) for four consecutive weeks, followed by daily IP injections of 5 mg/kg ENZ (Combi-Blocks, San Diego, CA, USA) in sterile PBS for three weeks. Following these neoadjuvant regimens, mice were randomly selected and placed into three groups. Groups 1 (n = 7) received daily oral doses of 20 mg/kg PsA (prepared in sterile PBS-DMSO 925:75). Group 2 (n = 5) received daily oral PsA 10 mg/kg. Group 3 (n = 7) received daily oral doses of PsA-free vehicle control. Treatments continued for 60 days. Isoflurane-anesthetized mice were subjected to weekly tumor monitoring using PerkinElmer IVIS Lumina Series III (Waltham, MA, USA) 30 min after an IP injection of (+)-luciferin (75 mg/kg, IP, PerkinElmer, Waltham, MA, USA) for efficiency assessment of excision surgery, tumor progression, and tumor metastasis. Following treatment regimen completion, mice were anesthetized using isoflurane (USP-vaporizer method, Matrix VIP-3000), exposure of animals in an anesthesia chamber at 3% isoflurane vaporization rate. Exposure time 2 min. Mice were then euthanized by cervical dislocation according to the American Veterinary Medical Association (AVMA) Guidelines for the Euthanasia of Animals: 2020 Edition, and tumors were collected. Tumors were snap frozen using Isopentane (J.T. Baker, Radnor, PA, USA) in liquid nitrogen before storage at −80 °C.

SMILES: CC/C=C\[C@H](O)[C@H](O)C1=C(C)C(=O)[C@]2(O1)C(=O)N[C@@](OC)(C(=O)c1ccccc1)[C@@H]2O [PsA, pseurotin A]
- Distant recurrence Backbone, affected mice per group (PsA 10 mg/kg daily oral, n = 5): 1/5
- Distant recurrence Brain, affected mice per group (PsA 10 mg/kg daily oral, n = 5): 2/5
- Distant recurrence Femur, affected mice per group (PsA 10 mg/kg daily oral, n = 5): 1/5
- Distant recurrence Heart, affected mice per group (PsA 10 mg/kg daily oral, n = 5): 1/5
- Distant recurrence Kidney, affected mice per group (PsA 10 mg/kg daily oral, n = 5): 0/5
- Distant recurrence Liver, affected mice per group (PsA 10 mg/kg daily oral, n = 5): 1/5
- Distant recurrence Lung, affected mice per group (PsA 10 mg/kg daily oral, n = 5): 1/5
- Distant recurrence Spleen, affected mice per group (PsA 10 mg/kg daily oral, n = 5): 1/5
- Locoregional recurrence, affected mice per group (PsA 10 mg/kg daily oral, n = 5): one and 1/5
- Distant recurrence Backbone, affected mice per group (PsA 20 mg/kg daily oral, n = 7): 0/7
- Distant recurrence Brain, affected mice per group (PsA 20 mg/kg daily oral, n = 7): 2/7
- Distant recurrence Femur, affected mice per group (PsA 20 mg/kg daily oral, n = 7): 1/7
- Distant recurrence Heart, affected mice per group (PsA 20 mg/kg daily oral, n = 7): 0/7
- Distant recurrence Kidney, affected mice per group (PsA 20 mg/kg daily oral, n = 7): 0/7
- Distant recurrence Liver, affected mice per group (PsA 20 mg/kg daily oral, n = 7): 1/7
- Distant recurrence Lung, affected mice per group (PsA 20 mg/kg daily oral, n = 7): 0/7
- Distant recurrence Spleen, affected mice per group (PsA 20 mg/kg daily oral, n = 7): 0/7
- Locoregional recurrence, affected mice per group (PsA 20 mg/kg daily oral, n = 7): one and 1/7

Source: article PMC12525728, “Safety, Pharmacokinetics, Translational and Molecular Mechanistic Insights on the Prostate Cancer Recurrence Suppressor Pseurotin A” (Molecules, 2025)
